Test results published in patent US5696153A, “Therapeutic regimen for treating patients” (priority 1996, dated 1997).
Entries after “also recorded” stand apart in the source; their conditions may differ. Where two headings read alike, the source gives them in different places.

Legend:
[1] = tested on: SK-N-FI neuroblastoma cells; test: cells; conditions: for cytotoxicity at 0.1 µg/mL / cytotoxicity at 1 µg/mL: 120 h
Source text: (§1) Cell lines tested included: Glioblastoma cell lines VA-MG-SL and U-373-MG, neuroblastoma cell lines SK-N-AS, SK-N-FI and VA-N-BR, and two primitive neuroectodermal tumor cell lines SK-N-LO and SK-PN-DW at different concentrations. All cell lines were personally established from patients and cultured except U-373-MG (obtained from the American Type Culture Collection, Rockville, […]., USA). The cell lines SK-N-AS, SK-N-FI, SK-N-LO and SK-PN-DW have been reported in several publications and are believed to be representative of their respective lineages.
(§2) Stock cells in 25 cm^2 flasks were incubated in Dubelco's modified Eagle's medium (Sigma, St. Louis, Mo.) containing 10% fetal bovine serum at 37° C. and 5% CO2 in air for 5 days. Media was renewed on the sixth day and on the seventh day the cells were detached into a single cell suspension with trypsin EDTA, counted and aliquots plated at 3000 to 5000 cells in 0.1 ml fresh media in separate wells of a 96-well microliter plate (Becton-Dickinson Labware, Lincoln Park, N.J.). […] Six replicate wells were used in every experiment as controls and for each test concentration. Each experiment was repeated three separate times. Viability of the cell lines 5 days after exposure to drugs was determined by the MTT assay following published procedures.
(§3) Cytocidal activity was defined when the number of cells or the MTT surrogate optical density value was less than the initial inoculum. This is usually the case when ≥80% toxicity is recorded under these in vitro conditions.
(§4) Differences were considered to be statistically significant for a p-value of 0.05 or less.

[2] = tested on: VA-MG-SL glioblastoma cells; test: cells; conditions: for cytotoxicity at 0.1 µg/mL / cytotoxicity at 1 µg/mL: Homo sapiens, 120 h
Source text: as §1, §2, §3, §4

[3] = tested on: VA-N-BR neuroblastoma cells; test: cells; conditions: Neuroblastoma cell; for cytotoxicity at 0.1 µg/mL / cytotoxicity at 1 µg/mL: Homo sapiens, 120 h
Source text: as §1, §2, §3, §4

[4] = tested on: U-373-MG glioblastoma cells; test: cells; conditions: Homo sapiens, U373 MG; for cytotoxicity at 0.1 µg/mL / cytotoxicity at 1 µg/mL: 120 h
Source text: as §1, §2, §3, §4

[5] = tested on: SK-N-LO primitive neuroectodermal tumor cells; test: MTT cytotoxicity, SK-N-LO; conditions: for cytotoxicity at 0.01 µg/mL / cytotoxicity at 0.1 µg/mL / cytotoxicity at 1 µg/mL: Homo sapiens, 120 h
Source text: as §1, §2, §3, §4

[6] = tested on: recurrent or refractory solid tumors of childhood; test: Study Y: pilot study of children with recurrent or refractory cancer; assay type: in vivo, human (children)
Description: A pilot study of children with recurrent or refractory cancer was initiated under our direction. Ten patients with a variety of recurrent or refractory solid tumors of childhood were treated with the same dosage and schedule as the adults described above.

[7] = tested on: SK-N-AS cells; test: Effects of spacing exposure to taxol on toxicity in SK-N-AS cells
Description: as §2

[8] = tested on: SK-N-AS neuroblastoma cells; test: MTT cytotoxicity, SK-N-AS; conditions: for cytotoxicity at 0.01 µg/mL / cytotoxicity at 0.1 µg/mL / cytotoxicity at 1 µg/mL: Homo sapiens, 120 h
Source text: as §1, §2, §3, §4

[9] = tested on: various cancers; test: Human tumor responses, Q4D schedule; assay type: in vivo, human patients
Description: From the results obtained from the in vitro and the animal studies, responses of various human subjects to the Q4d×3 (21 days×3) protocol at dosages levels of about 60 mg/m^2 were evaluated. It should be understood that these patients were deemed "salvage" cases almost all of whom had not responded to conventional treatment. All were otherwise thought to be beyond approved therapeutic regimens. Thus, the results and evaluation are anecdotal in nature and are not part of a controlled and statistical valid clinical trial.
Characteristics of the group of twenty were: male (5); female (15); median age 44 (17-81); ECOG-PS 1 (0-3). All were previously treated with chemotherapy and radiation for cancers of the breast (5), ovarian (2), brain (3), prostate (1), head and neck (4), bone (2), leiomyosarcoma (2), and melanoma (1).

[10] = read-out: concentration at which cell line was affected
[11] = Homo sapiens, SK-N-AS, 120 h, read-out: Survival (%)

CC(=O)O[C@H]1C(=O)[C@@]2(C)[C@H]([C@H](OC(=O)c3ccccc3)[C@]3(O)C[C@H](OC(=O)[C@H](O)[C@@H](NC(=O)c4ccccc4)c4ccccc4)C(C)=C1C3(C)C)[C@]1(OC(C)=O)CO[C@@H]1C[C@@H]2O [taxol]
concentration in normal tissues, treated vs controls (10 mg/kg IP Q4D×3, then single 20 mg/kg IP): consistently greater than in nontreated controls; also recorded: consistently greater than in Group A
concentration in tumor vs liver, kidney or lung (after single 20 mg/kg IP): usually greater in tumor tissue compared to liver, kidney or lung
distribution in tumor tissue compared to liver, kidney or lung (mouse, in vivo): four to thirty
Taxol, tumor (treated (Cages II, III): 10 mg/kg Q4D×3, then 20 mg/kg IP 24 h prior, individual mice): 195.24 ng/mg Protein
resilience of cell line to taxol (least/most resilient) ([1]; 0.01-1.0 μg/ml): the most
cytotoxicity at 0.1 µg/mL ([1]; Homo sapiens, read-out: Taxol toxicity, SK-N-FI, 0.1 μg/ml x 1 h, 5 days after exposure): 0%
cytotoxicity at 0.1 µg/mL ([1]; Homo sapiens, read-out: Taxol toxicity, SK-N-FI, 0.1 μg/ml x 4 h, 5 days after exposure): 0%
cytotoxicity at 0.1 µg/mL ([1]; Homo sapiens, read-out: Taxol toxicity, SK-N-FI, 0.1 μg/ml x 24 h, 5 days after exposure, p < 0.05 vs 1 h): 14%
cytotoxicity at 1 µg/mL ([1]; Homo sapiens, read-out: Taxol toxicity, SK-N-FI, 1.0 μg/ml x 1 h, 5 days after exposure): 0%
cytotoxicity at 1 µg/mL ([1]; Homo sapiens, read-out: Taxol toxicity, SK-N-FI, 1.0 μg/ml x 4 h, 5 days after exposure): 58%
cytotoxicity at 1 µg/mL ([1]; Homo sapiens, read-out: Taxol toxicity, SK-N-FI, 1.0 μg/ml x 24 h, 5 days after exposure, p < 0.05 vs 1 h): 76%
minimal effective concentration ([1]; Homo sapiens, read-out: concentration at which cell line was affected): ≥ 0.1 µg/mL
cytotoxicity at 0.1 µg/mL ([2]; read-out: Taxol toxicity, VA-MG-SL, 0.1 μg/ml x 1 h, 5 days after exposure): 58%
cytotoxicity at 0.1 µg/mL ([2]; read-out: Taxol toxicity, VA-MG-SL, 0.1 μg/ml x 4 h, 5 days after exposure): 56%
cytotoxicity at 0.1 µg/mL ([2]; read-out: Taxol toxicity, VA-MG-SL, 0.1 μg/ml x 24 h, 5 days after exposure): 58%
cytotoxicity at 1 µg/mL ([2]; read-out: Taxol toxicity, VA-MG-SL, 1.0 μg/ml x 1 h, 5 days after exposure): 87%
cytotoxicity at 1 µg/mL ([2]; read-out: Taxol toxicity, VA-MG-SL, 1.0 μg/ml x 4 h, 5 days after exposure): 90%
cytotoxicity at 1 µg/mL ([2]; read-out: Taxol toxicity, VA-MG-SL, 1.0 μg/ml x 24 h, 5 days after exposure): 86%
minimal effective concentration [2, 10]: ≥ 0.1 µg/mL
cytotoxicity at 0.1 µg/mL ([3]; read-out: Taxol toxicity, VA-N-BR, 0.1 μg/ml x 1 h, 5 days after exposure): 61%
cytotoxicity at 0.1 µg/mL ([3]; read-out: Taxol toxicity, VA-N-BR, 0.1 μg/ml x 4 h, 5 days after exposure): 66%
cytotoxicity at 0.1 µg/mL ([3]; read-out: Taxol toxicity, VA-N-BR, 0.1 μg/ml x 24 h, 5 days after exposure): 68%
cytotoxicity at 1 µg/mL ([3]; read-out: Taxol toxicity, VA-N-BR, 1.0 μg/ml x 1 h, 5 days after exposure): 87%
cytotoxicity at 1 µg/mL ([3]; read-out: Taxol toxicity, VA-N-BR, 1.0 μg/ml x 4 h, 5 days after exposure): 84%
cytotoxicity at 1 µg/mL ([3]; read-out: Taxol toxicity, VA-N-BR, 1.0 μg/ml x 24 h, 5 days after exposure): 83%
minimal effective concentration [3, 10]: ≥ 0.1 µg/mL
cytotoxicity at 0.1 µg/mL ([4]; read-out: Taxol toxicity, U-373-MG, 0.1 μg/ml x 1 h, 5 days after exposure): 46%
cytotoxicity at 0.1 µg/mL ([4]; read-out: Taxol toxicity, U-373-MG, 0.1 μg/ml x 4 h, 5 days after exposure): 56%
cytotoxicity at 0.1 µg/mL ([4]; read-out: Taxol toxicity, U-373-MG, 0.1 μg/ml x 24 h, 5 days after exposure): 57%
cytotoxicity at 1 µg/mL ([4]; read-out: Taxol toxicity, U-373-MG, 1.0 μg/ml x 1 h, 5 days after exposure): 74%
cytotoxicity at 1 µg/mL ([4]; read-out: Taxol toxicity, U-373-MG, 1.0 μg/ml x 4 h, 5 days after exposure): 79%
cytotoxicity at 1 µg/mL ([4]; read-out: Taxol toxicity, U-373-MG, 1.0 μg/ml x 24 h, 5 days after exposure): 79%
minimal effective concentration [4, 10]: ≥ 0.1 µg/mL
cytotoxicity at 0.01 µg/mL ([5]; read-out: Taxol toxicity, SK-N-LO, 0.01 μg/ml x 1 h, 5 days after exposure): 0%
cytotoxicity at 0.01 µg/mL ([5]; read-out: Taxol toxicity, SK-N-LO, 0.01 μg/ml x 4 h, 5 days after exposure): 0%
cytotoxicity at 0.01 µg/mL ([5]; read-out: Taxol toxicity, SK-N-LO, 0.01 μg/ml x 24 h, 5 days after exposure, p < 0.05 vs 1 h): 17%
cytotoxicity at 0.1 µg/mL ([5]; read-out: Taxol toxicity, SK-N-LO, 0.1 μg/ml x 1 h, 5 days after exposure): 43%
cytotoxicity at 0.1 µg/mL ([5]; read-out: Taxol toxicity, SK-N-LO, 0.1 μg/ml x 4 h, 5 days after exposure): 56%
cytotoxicity at 0.1 µg/mL ([5]; read-out: Taxol toxicity, SK-N-LO, 0.1 μg/ml x 24 h, 5 days after exposure): 47%
cytotoxicity at 1 µg/mL ([5]; read-out: Taxol toxicity, SK-N-LO, 1.0 μg/ml x 1 h, 5 days after exposure): 54%
cytotoxicity at 1 µg/mL ([5]; read-out: Taxol toxicity, SK-N-LO, 1.0 μg/ml x 4 h, 5 days after exposure): 58%
cytotoxicity at 1 µg/mL ([5]; read-out: Taxol toxicity, SK-N-LO, 1.0 μg/ml x 24 h, 5 days after exposure): 57%
cytotoxicity compared with a 1 hour exposure ([5]; SK-N-LO, 0.01 μg/ml, 24 hour): enhanced cytotoxicity
toxicity in words ([5]; SK-N-LO, 0.01 μg/ml, 24 hour exposure): toxic
tumor response on CT scan ([6]; one patient, pelvic embryonal rhabdomyosarcoma): shrinkage of their tumor
decrease in tumor volume ([6]; one patient, recurrent glioblastoma multiforme, after 9 treatments): 30%
progression ([6]; rhabdomyosarcoma patient, shortly following the 9th treatment): developed a brain metastasis
viability at 0.3 µg/mL [7, 11]: 61%
viability at 0.6 µg/mL [7, 11]: 24%
cytotoxic effects of single vs split exposure ([7]; single exposure 0.6 μg/ml/h): greater than when taxol was scheduled as 0.3 μg/ml given once and once again after 30 minutes
cytotoxicity compared with a 1 hour exposure ([8]; 0.01 μg/ml, 24 hour): enhanced cytotoxicity
toxicity in words ([8]; 0.01 μg/ml, ≥1 hour exposure): toxic
resilience of cell line to taxol ([8]; 0.01-1.0 μg/ml): least resilient of the cell lines
cytotoxicity at 0.01 µg/mL ([8]; read-out: Taxol toxicity, SK-N-AS, 0.01 μg/ml x 1 h, 5 days after exposure): 15%
cytotoxicity at 0.01 µg/mL ([8]; read-out: Taxol toxicity, SK-N-AS, 0.01 μg/ml x 4 h, 5 days after exposure): 25%
cytotoxicity at 0.01 µg/mL ([8]; read-out: Taxol toxicity, SK-N-AS, 0.01 μg/ml x 24 h, 5 days after exposure, p < 0.05 vs 1 h): 50%
cytotoxicity at 0.1 µg/mL ([8]; read-out: Taxol toxicity, SK-N-AS, 0.1 μg/ml x 1 h, 5 days after exposure): 65%
cytotoxicity at 0.1 µg/mL ([8]; read-out: Taxol toxicity, SK-N-AS, 0.1 μg/ml x 4 h, 5 days after exposure): 67%
cytotoxicity at 0.1 µg/mL ([8]; read-out: Taxol toxicity, SK-N-AS, 0.1 μg/ml x 24 h, 5 days after exposure, p < 0.05 vs 1 h): 81%
cytotoxicity at 1 µg/mL ([8]; read-out: Taxol toxicity, SK-N-AS, 1.0 μg/ml x 1 h, 5 days after exposure): 87%
cytotoxicity at 1 µg/mL ([8]; read-out: Taxol toxicity, SK-N-AS, 1.0 μg/ml x 4 h, 5 days after exposure): 82%
cytotoxicity at 1 µg/mL ([8]; read-out: Taxol toxicity, SK-N-AS, 1.0 μg/ml x 24 h, 5 days after exposure): 89%
antitumor activity in words ([9]; Q4D schedule, advanced disease patients with varied histologies): has antitumor activity in advanced disease patients with varied histologies
effectiveness vs Q21 day schedule ([9]; Q4D, previously untreated patients or in combination/sequence, interpretation): equal to, or more effective than, the Q21 day schedule
partial response ([9]; all): four
partial response ([9]; brain): 1 instances
complete response ([9]; brain tumor): one
partial response ([9]; breast): 2 instances
partial response ([9]; head and neck): 1 instances
effectiveness in words ([9]; salvage patients, limited tests): demonstrated effectiveness
